From ChEMBL document CHEMBL1212736, “Prevalence and clonal characterization of Streptococcus pyogenes clinical isolates with reduced fluoroquinolone susceptibility in Spain” (2010) come the findings set out here.

Assay [1] relates to Streptococcus pyogenes. As to the kind of experiment: Antimicrobial activity against strong ciprofloxacin-resistant Streptococcus pyogenes by agar dilution method. The format is functional. Background: In agar dilution, organisms are placed on agar that contains the substance at set levels.
Assay [2] deals with Streptococcus pyogenes. As to the kind of experiment: Antimicrobial activity against strong ciprofloxacin-resistant Streptococcus pyogenes at 10 ug by disk diffusion assay. The format is functional. The following applies: read-out: IZ. (Agar diffusion results depend on both activity and mobility in agar.)
The subject of assay [3] is Streptococcus pyogenes. Briefly: Antimicrobial activity against ciprofloxacin-susceptible Streptococcus pyogenes harboring Asp91/Asn mutation in parC gene by agar dilution method. The format is functional.
For assay [4], the system named is Streptococcus pyogenes. As to the kind of experiment: Antimicrobial activity against mild ciprofloxacin-resistant Streptococcus pyogenes assessed as 1 fold decrease in compound MIC by agar dilution method. The format is functional, organism-based.
Assay [5] has as its system Streptococcus pyogenes. Briefly: Antimicrobial activity against strong ciprofloxacin-resistant Streptococcus pyogenes assessed as 1 fold decrease in compound MIC by agar dilution method. The format is functional, organism-based.
For assay [6], the system named is Streptococcus pyogenes. As to the kind of experiment: Antimicrobial activity against ciprofloxacin-susceptible Streptococcus pyogenes harboring Asp91/Asn mutation in parC gene assessed as 1 fold decrease in compound MIC by agar dilution method. The format is functional, organism-based.
The test system of assay [7] is Streptococcus pyogenes. As to the kind of experiment: Antimicrobial activity against mild ciprofloxacin-resistant Streptococcus pyogenes by agar dilution method. The format is functional.
Assay [8] concerns Streptococcus pyogenes. As to the kind of experiment: Antimicrobial activity against macrolide-resistant Streptococcus pyogenes emm77/ST399/T28 expressing tetM gene by agar dilution method. The format is functional.

In brackets after ≈: the same amount, converted by molar mass. Activity calls are given as the source filed them. The calls are words filed in the database; no cut-off is given here.

`O=C(O)c1cn(C2CC2)c2cc(N3CCNCC3)c(F)cc2c1=O` [CIPROFLOXACIN] yielded an MIC in assay [1] of 32 µg/mL (≈ 96.6 µM). Besides, in assay [2], the zone of inhibition at 10 µg/disc was 0 mm. In assay [3], this molecule yielded an MIC50 of less than 0.5 µg/mL. The molecule also displayed an MIC90 in assay [3] of 1 µg/mL (≈ 3.02 µM). Further, the result in assay [4], in assay [5] and in assay [6] was Active.

Turning to `CO/N=C1\CN(c2nc3c(cc2F)c(=O)c(C(=O)O)cn3C2CC2)CC1CN` (configuration not stated) [GEMIFLOXACIN], the lowest concentration to inhibit growth in assay [1] (MIC) was 1 µg/mL (≈ 2.57 µM). For the same molecule, the zone of inhibition at 10 µg/disc in assay [2] was determined as 0 mm. In addition, the MIC50 in assay [3] and in assay [7] was not above 0.25 µg/mL in each case. For the same molecule, the MIC90 in assay [3] and in assay [7] was not above 0.25 µg/mL throughout.

In turn, `Cc1c(F)c(N2CCNC(C)C2)cc2c1c(=O)c(C(=O)O)cn2C1CC1` (configuration not stated) [GREPAFLOXACIN] gave an MIC in assay [1] of 16 µg/mL (≈ 44.5 µM). In assay [2], the zone of inhibition at 10 µg/disc amounted to 0 mm. In assay [3], this molecule returned an MIC50 not above 0.5 µg/mL and an MIC90 of 1 µg/mL (≈ 2.78 µM). In assay [7], this molecule had an MIC50 of 2 µg/mL (≈ 5.56 µM) and an MIC90 of 2 µg/mL (≈ 5.56 µM).

Take `C[C@H]1COc2c(N3CCN(C)CC3)c(F)cc3c(=O)c(C(=O)O)cn1c23.C[C@H]1COc2c(N3CCN(C)CC3)c(F)cc3c(=O)c(C(=O)O)cn1c23.O` [LEVOFLOXACIN]: the lowest concentration to inhibit growth in assay [1] (MIC) was 32 µg/mL. Besides, the zone of inhibition at 10 µg/disc in assay [2] was 0 mm. In addition, the MIC50 is not above 0.5 µg/mL in assay [3] and 2 µg/mL in assay [7]. For the same molecule, the figures for the MIC90 in assay [3] and in assay [7] were 1 µg/mL and 2 µg/mL, respectively.

For `COc1c(N2C[C@@H]3CCCN[C@@H]3C2)c(F)cc2c(=O)c(C(=O)O)cn(C3CC3)c12` [MOXIFLOXACIN], in assay [1], the minimum inhibitory concentration (MIC) was 4 µg/mL (≈ 9.96 µM). Also, the zone of inhibition at 10 µg/disc in assay [2] stood at 0 mm. Besides, in assay [3], the MIC50 is not above 0.25 µg/mL and the MIC90 is not above 0.25 µg/mL. In assay [7], this molecule displayed an MIC50 of 0.5 µg/mL (≈ 1.25 µM) and an MIC90 of 0.5 µg/mL (≈ 1.25 µM).

As for `CCn1cc(C(=O)O)c(=O)c2cc(F)c(N3CCNCC3)cc21` [NORFLOXACIN], the MIC in assay [1] came to 64 µg/mL (≈ 200 µM). Further, in assay [2], the zone of inhibition at 10 µg/disc turned out to be 0 mm. Further, the values for the MIC50 in assay [3] and in assay [7] were 4 µg/mL (≈ 12.5 µM) and 32 µg/mL (≈ 100 µM), respectively. Moreover, the MIC90 in assay [3] is 8 µg/mL (≈ 25.1 µM); in assay [7], more than 32 µg/mL. Also, the outcome in assay [4], in assay [5] and in assay [6] was Active.

Molecule `CC1COc2c(N3CCN(C)CC3)c(F)cc3c(=O)c(C(=O)O)cn1c23` (configuration not stated) [OFLOXACIN] came in with a minimum inhibitory concentration (MIC) in assay [1] of 64 µg/mL (≈ 177 µM). Also, the zone of inhibition at 10 µg/disc in assay [2] turned out to be 0 mm. In assay [3], this molecule came in with an MIC50 of 1 µg/mL (≈ 2.77 µM) and an MIC90 of 2 µg/mL (≈ 5.53 µM). In assay [7], the MIC50 turned out to be 4 µg/mL (≈ 11.1 µM) and the MIC90 came to 8 µg/mL (≈ 22.1 µM).

With `CN(C)[C@@H]1C(O)=C(C(N)=O)C(=O)[C@@]2(O)C(O)=C3C(=O)c4c(O)cccc4[C@@](C)(O)[C@H]3C[C@@H]12` [TETRACYCLINE], the MIC in assay [8] came to 8 µg/mL (≈ 18 µM).

By MIC is commonly meant the least concentration at which growth counts as inhibited. A higher MIC goes with weaker potency. Broadly, the MIC50 is the lowest concentration that inhibits either 50% of growth or 50% of the strains tested, depending on the study. What is called MIC90 is the lowest concentration that inhibits either 90% of growth or 90% of the strains tested, depending on the study.
